# Test results from US20260224732A1, “BIOPOLYMER PROTECTED OLIGONUCLEOTIDES FOR DRUG DELIVERY” (THE ROYAL INSTITUTION FOR THE ADVANCEMENT OF LEARNING / …, priority 2023, published 2026).
# Key:
# [1] = tested on: Epithelial cells; assay: Cellular viability with CA and CA-R mixes; type: cell-based
# From the text: Magnification of 10×, scale bar=100 μm, dapi in blue and factin in red.
# Cellular viability. To be applicable in biological context, the toxicity of the CA and the combined CA-R mixes were verified. Epithelial cells were cultivated in media supplemented with various CA-R mixes and acidified at pH 6. Both the cellular viability and morphology was studied over a 5 day period.
# [2] = cited from earlier work
# [3] = biological target: exonuclease EXO I (Escherichia coli, UniProt P04995); details: Exo I 1 unit
# exonuclease EXO I, sequence (P04995 whole entry): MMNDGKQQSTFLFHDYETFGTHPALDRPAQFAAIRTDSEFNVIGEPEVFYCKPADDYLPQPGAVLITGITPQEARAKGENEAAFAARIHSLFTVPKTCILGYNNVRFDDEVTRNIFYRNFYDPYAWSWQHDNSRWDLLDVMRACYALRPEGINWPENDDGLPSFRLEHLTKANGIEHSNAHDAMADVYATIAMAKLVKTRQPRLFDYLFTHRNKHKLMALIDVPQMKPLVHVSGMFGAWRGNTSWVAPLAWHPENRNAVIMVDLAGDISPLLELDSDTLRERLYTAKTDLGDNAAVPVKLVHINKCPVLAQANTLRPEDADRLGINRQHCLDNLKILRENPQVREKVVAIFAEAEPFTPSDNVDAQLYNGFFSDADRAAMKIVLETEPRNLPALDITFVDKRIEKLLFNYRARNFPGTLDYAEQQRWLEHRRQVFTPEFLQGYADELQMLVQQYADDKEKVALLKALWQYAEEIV
# From the text: The enzymes were used at 1U of concentration and the DNA at […].
# The fetal bovine serum used to test the biological stability of strands in presence of CA contains a mixture of multiple nucleases, including both endo- and exonucleases.
# [4] = tested on: endonuclease DNAse I; assay: Degradation with the endonuclease DNAse I; type: in vitro ADME
# From the text: The enzymes were used at 1U of concentration and the DNA at 25M.
# [5] = Rheological measurements of dA/CA hydrogels; type: physicochemical; details: CA 20 mM
# Procedure: Hydrogel Assembly and Rheology: Unless otherwise stated, the preparation of gels follows this procedure. The appropriate amounts of strands are evaporated from their stocks on a speedvaccuum in a 300 μL Eppendorf. For the dA30-dsDNAn hydrogels, the concentration is half strand1 and half strand2. Once dry, 50 μL or 100 μL of a buffer containing the desired concentration of CA and/or CAC2NH2 is added to the Eppendorf. […] Both buffers give similar gels rheologically (FIG. 40). For concentrations of CA exceeding 20 mM or CAC2NH2 30 mM, the excess CA-R is dried with the strands from a water/CA 20 mM solution adjusted to pH 6. The dried DNA is mixed and sonicated to help it dissolve, forming instantly a cloudy filamentous gel. To homogenize the gels, the Eppendorf is heated to 85° C. for 5 minutes a Bio-Rad T100TM thermocycler, then cooled down to 20° C. and kept at that temperature overnight, unless otherwise noted. They are measured the next day. It is important to properly homogenize the gels, mixing them at high temp if needed, and to quickly cool them, or they may form more localized aggregates with varying rheology. Due to the high melting temperature of dA30C8 2 mM, CA 60 mM, CAC2NH2 90 mM, the gel was prepared by heating at 100° C. for 20 min (sealed to prevent water escaping), before being brought to 20° C. Clear monophasic gels are formed from this process.
# Rheological measurements: Rheological properties were measured using stress-controlled rheometer (MCR 302, Anton Paar) using a 15 mm diameter cone plate at 0.2 mm (50 μL gels) or 0.5 mm (100 μL gels) gap distance. Samples were taken directly from the Eppendorf in which they were formed by prying it open with a razor blade and placed under the cone plate. The temperature was maintained at 25° C. for all measurements using a Peltier temperature control unit unless otherwise noted. Due to the small thickness of the samples, no temperature gradients are expected. To avoid drying, a solvent trap was used in all the measurements. Amplitude sweeps were first conducted to assess the linear viscoelastic range of the samples by slowly increasing the strain from 0.01% to 100%. […] Oscillatory frequency sweep tests were measured between 0.1 Hz and 100 Hz at 0.1% strain. Strain-cycle experiment was done by cycling the gel between 0.1% and 100% strains at 1 Hz. To understand the shear-thinning behavior of the samples, the viscosity was measured at increasing strain rate ranging from (0.1-100 Hz).
# • A) Strand complement. Two 50 μL dA30C4 700 μM hydrogel in Mag buffer with CA 20 mM samples were prepared, as well as a 10 μL sample of dG4T30 3 mM (1.5 eq.) in the same buffer and CA concentration. A sample of dA30C4 hydrogel was measured independently. The dG4T30 sample was added to the second dA30C4 sample and vortexed in its Eppendorf for 2 minutes before being measured. • B) Melamine. A 50 μL hydrogel composed of dA30-dsDNA13 700 μM and CA 20 mM in Mag buffer was measured in the rheometer. The plate of the rheometer was lifted and 50 μL of solution of 20 mM melamine in Mag buffer at pH6 was added to it. Instant white precipitate formed and was encouraged by gently mixing with a spatula for 30s before the resulting liquid with solid precipitate was measured rheologically. • C) pH. A volume of 180 μL of dA30C4v2 700 μM CA 20 mM hydrogel in Mag buffer was prepared. The initial pH was measured at 5.71 with a surface pH meter (Mettler Toledo). An approximate volume of 50 μL was separated and measured rheologically. To the remaining 130 μL, 2.70 μL of NaOH 5.04M was added and stirred through vortexing. The resulting pH of the liquid was measured at 7.91. 50 μL of it were measured rheologically. To the remaining 80 μL, 1.5 μL of HCl 5.04M was added by aliquot and mixed through vortexing, forming a gel with a pH of 5.66 after 2 minutes. To note that in general, it is important to mix vigorously with the addition of the acid, or localized gels will form rather than a homogeneous one. […]
Molecule,toxicity in vitro [1],"viability ([1]; after 5 days, pH 6, CA 20 mM alone or CA 20 mM plus the named CA-R (CAC2NH2 30 mM, CAC6NH2 12 mM))",pKa [2],t1/2 CA 20 mM [3],"half-life without CA ([4]; DNAse I 1U, no CA)","t1/2 CA 20 mM ([4]; DNAse I 1 unit, CA 20 mM)","t1/2 CA 0 mM ([4]; DNAse I 1 unit, no CA)","degradation after 5 days at 1U of enzyme ([4]; DNAse I, with CA)",storage modulus G′ (1 Hz) ([5]; 700 μM strands (1.4 wt % for dA30C4v2)),"storage modulus (G′) ([5]; 1 Hz, same wt % (dA15 1400 μM, dA30 700 μM, dA50 420 μM), Mag buffer, 25° C.)"
"O=c1[nH]c(=O)[nH]c(=O)[nH]1 [CA, cyanuric acid]",low toxicity,91±2%,6.9,,,,,,,
"dA30: DNA strand of 30 adenines, SEQ ID NO 6 (DNA AAAAAAAAAAAAAAAAAAAAAAAAAAAAAA; DNA, backbone not given here)",,,,63 ± 15 h,0.45 ± 0.1 h,>120 h,0.46 h,does not cause degradation,1.8±0.4×10^2 Pa,1.8±0.4×10^2 Pa
